Experimental data taken from patent US11999727B2 (Tango Therapeutics, Inc., priority 2020, dated 2024).
Like-named read-outs stand apart in the source and are kept apart here.

Assays:
[1] = biological target: T1, PRMT5 (Homo sapiens, UniProt O14744); test: PRMT5 biochemical IC50 assay with SAM as cofactor; details: PRMT5, SAM as cofactor; read-out: SAM IC50
T1 construct: purchased Viva (custom protein)

[2] = biological target: T1, PRMT5; test: PRMT5 biochemical IC50 assay with no cofactor; details: PRMT5, no cofactor
Description: Table 1 indicates IC50 values (μM) against PRMT5 for exemplary compounds in the presence of SAM as cofactor, with no cofactor, and with MTA as cofactor, respectively (columns 4-6). […] Ki values can be calculated from the IC50 values as described in the Examples section. As detailed in the Examples section, for the assay performed in the presence of SAM, IC50=Ki×1.5 (Ki=IC50/1.5).

[3] = biological target: T1, PRMT5; test: PRMT5 biochemical IC50 assay with MTA as cofactor; details: PRMT5, MTA as cofactor; read-out: MTA IC50
[4] = test system: HAP1 MTAP-intact cell line; test: SDMA in-cell western assay, HAP1 MTAP-intact; format: cell-based; details: Homo sapiens
In short: (§1)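 Readout: in-cell western detection of SDMA. Cells: HAP1 expressing endogenous MTAP and an MTAP-null HAP1 counterpart. Output: IC50.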

[5] = test system: HAP1 MTAP-deleted cell line; test: SDMA in-cell western assay, HAP1 MTAP-deleted; format: cell-based; details: for IC50: Homo sapiens; for MTAP intact/deleted ratio: SDMA in-cell western
In short: as §1

[6] = test system: HAP1 MTAP-deleted cell line; test: Viability assay, MTAP-deleted cell line; format: cell-based; details: Homo sapiens
Description: Table 1 additionally indicates IC50 values in a viability assay for the MTAP-deleted cell line (column 10), indicating the effect of treatment with compound on cell survival.

[7] = HAP1, SDMA in-cell western, HAP1 MTAP-intact, read-out: MTAP HAP1 intact IC50
[8] = HAP1, SDMA in-cell western, HAP1 MTAP-deleted, read-out: HAP1 MTAP deleted IC50
[9] = IC50 ratio HAP1 MTAP-intact vs HAP1 MTAP-deleted
[10] = HAP1, viability assay, MTAP-deleted cell line, read-out: HAP1 MTAP deleted viability
[11] = read-out: No Cofactor/ rel IC50
[12] = HAP1, SDMA in-cell western, HAP1 MTAP-deleted, read-out: HAP 1 MTAP deleted IC50
[13] = IC50 ratio HAP1 MTAP-intact / HAP1 MTAP-deleted
[14] = HAP1, viability, HAP1 MTAP-deleted cell line, read-out: HAP1 MTAP deleted viability

T1 sequence (O14744 whole entry): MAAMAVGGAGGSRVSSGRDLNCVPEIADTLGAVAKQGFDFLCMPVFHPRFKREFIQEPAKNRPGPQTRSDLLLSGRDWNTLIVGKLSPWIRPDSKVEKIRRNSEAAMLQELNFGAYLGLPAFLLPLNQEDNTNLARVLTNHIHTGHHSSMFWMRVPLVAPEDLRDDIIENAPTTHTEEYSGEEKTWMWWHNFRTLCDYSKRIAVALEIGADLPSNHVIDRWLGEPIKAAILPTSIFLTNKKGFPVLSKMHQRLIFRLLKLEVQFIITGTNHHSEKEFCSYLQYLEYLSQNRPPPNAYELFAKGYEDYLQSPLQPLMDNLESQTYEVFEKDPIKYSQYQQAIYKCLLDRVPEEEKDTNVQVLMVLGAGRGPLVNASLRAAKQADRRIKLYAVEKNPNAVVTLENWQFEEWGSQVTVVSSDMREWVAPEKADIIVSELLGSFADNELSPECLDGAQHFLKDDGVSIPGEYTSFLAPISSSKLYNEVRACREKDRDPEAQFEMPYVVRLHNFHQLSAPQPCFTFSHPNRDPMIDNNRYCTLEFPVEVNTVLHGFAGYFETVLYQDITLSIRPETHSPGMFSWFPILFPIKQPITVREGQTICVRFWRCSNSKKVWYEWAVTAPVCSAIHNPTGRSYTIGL
T1 sequence (Q9BQA1 whole entry partner): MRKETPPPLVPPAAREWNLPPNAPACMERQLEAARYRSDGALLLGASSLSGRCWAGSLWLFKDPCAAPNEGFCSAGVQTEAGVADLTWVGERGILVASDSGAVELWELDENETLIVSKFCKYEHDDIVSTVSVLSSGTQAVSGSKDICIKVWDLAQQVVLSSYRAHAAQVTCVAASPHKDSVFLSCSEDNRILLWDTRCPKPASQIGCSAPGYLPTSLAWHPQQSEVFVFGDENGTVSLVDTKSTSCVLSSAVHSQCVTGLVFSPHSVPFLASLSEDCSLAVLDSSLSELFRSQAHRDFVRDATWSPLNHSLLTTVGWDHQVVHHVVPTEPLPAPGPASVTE

## CCc1cc(NC(=O)C(=O)N2C[C@@H](C)CC[C@@H]2c2ccc3sc(C45CCC(CC4)N(C)C5)nc3c2)cnc1N [Compound 1217]
[1]
  IC50: < 50 nM
[2]; read-out: No Cofactor/rel IC50
  IC50: < 50 nM
[3]
  IC50: < 50 nM
[4]; [7]
  IC50: < 100 nM
[5]; [8]
  IC50: < 100 nM
[5]; [9]
  MTAP intact/deleted ratio: B (an IC50 ratio greater than or equal to 3 fold but lower than 10 fold)
[6]; [10]
  IC50: < 1000 nM

## COc1ncc(NC(=O)C(=O)N2C[C@@H](C)CC[C@@H]2c2ccc3sc(C4CCN(C5CC5)CC4)nc3c2)cc1C(N)=O [Compound 1219, 5-(2-((2R,5S)-2-(2-(1-cyclopropylpiperidin-4-yl)benzo[d]thiazol-5-yl)-5-methylpiperidin-1-yl)-2-oxoacetamido)-2-methoxynicotinamide]
[1]
  IC50: 50 to 500 nM
[2]; read-out: No Cofactor/rel IC50
  IC50: < 50 nM
[3]
  IC50: < 50 nM
[4]; [7]
  IC50: < 100 nM
[5]; [8]
  IC50: < 100 nM
[5]; [9]
  MTAP intact/deleted ratio: A (an IC50 ratio greater than or equal to 10 fold)
[6]; [10]
  IC50: < 1000 nM

## Cc1cc(NC(=O)C(=O)N2C[C@@H](C)CC[C@@H]2c2ccc3sc(C4CCN(C)CC4)cc3c2)cnc1N [Compound 1220, N-(6-amino-5-methyl-3-pyridyl)-2-[(2R,5S)-5-methyl-2-[2-(1-methyl-4-piperidyl)benzothiophen-5-yl]-1-piperidyl]-2-oxo-acetamide]
[1]
  IC50: < 50 nM
[2]; read-out: No Cofactor/rel IC50
  IC50: < 50 nM
[3]
  IC50: < 50 nM
[4]; [7]
  IC50: < 100 nM
[5]; [8]
  IC50: < 100 nM
[5]; [9]
  MTAP intact/deleted ratio: B (an IC50 ratio greater than or equal to 3 fold but lower than 10 fold)
[6]; [10]
  IC50: < 1000 nM

## CCc1cc(NC(=O)C(=O)N2C[C@@H](C)CC[C@@H]2c2ccc3sc(C4CCN(C5COC5)CC4)nc3c2)cnc1N [Compound 1224, N-(6-amino-5-ethylpyridin-3-yl)-2-((2R,53)-5-methyl-2-(2-(1-(oxetan-3-yl)piperidin-4-yl)benzo[d]thiazol-5-yl)piperidin-1-yl)-2-oxoacetamide]
[1]
  IC50: 50 to 500 nM
[2]; read-out: No Cofactor/rel IC50
  IC50: < 50 nM
[3]
  IC50: < 50 nM
[4]; [7]
  IC50: < 100 nM
[5]; [8]
  IC50: < 100 nM
[5]; [9]
  MTAP intact/deleted ratio: A (an IC50 ratio greater than or equal to 10 fold)
[6]; [10]
  IC50: < 1000 nM

## Cc1cc(NC(=O)C(=O)N2C[C@@H](C)CC[C@@H]2c2ccc(N(C)C3CCN(C)CC3)nc2)cnc1N [Compound 1225, N-(6-Amino-5-methyl-3-pyridyl)-2-[(2R,5S)-5-methyl-2-[6-[methyl-(1-methyl-4-piperidyl)amino]-3-pyridyl]-1-piperidyl]-2-oxo-acetamide]
[1]
  IC50: < 50 nM
[2]; read-out: No Cofactor/rel IC50
  IC50: < 50 nM
[3]
  IC50: < 50 nM
[4]; HAP1, read-out: MTAP HAP1 intact IC50
  IC50: 100 to 1000 nM
[5]; HAP1, read-out: HAP1 MTAP deleted IC50
  IC50: < 100 nM
[5]; [9]
  MTAP intact/deleted ratio: A (an IC50 ratio greater than or equal to 10 fold)
[6]; HAP1, read-out: HAP1 MTAP deleted viability
  IC50: < 1000 nM

## CCc1cc(NC(=O)C(=O)N2C[C@@H](C)CC[C@@H]2c2cccc(CCN(C)C)c2)cnc1N [Compound 1226, N-(6-amino-5-ethylpyridin-3-yl)-2-((2R,5S)-2-(3-(2-(dimethylamino)ethyl)phenyl)-5-methylpiperidin-1-yl)-2-oxoacetamide]
[1]
  IC50: 50 to 500 nM
[2]; read-out: No Cofactor/rel IC50
  IC50: < 50 nM
[3]
  IC50: < 50 nM
[4]; [7]
  IC50: 100 to 1000 nM
[5]; [8]
  IC50: < 100 nM
[5]; [9]
  MTAP intact/deleted ratio: A (an IC50 ratio greater than or equal to 10 fold)
[6]; [10]
  IC50: < 1000 nM

## CCc1cc(NC(=O)C(=O)N2C[C@@H](C)CC[C@@H]2c2ccc(CCN(C)C)cc2)cnc1N [Compound 1228, N-(6-amino-5-ethylpyridin-3-yl)-2-((2R,5S)-2-(4-(2-(dimethylamino)ethyl)phenyl)-5-methylpiperidin-1-yl)-2-oxoacetamide]
[1]
  IC50: 50 to 500 nM
[2]; read-out: No Cofactor/rel IC50
  IC50: < 50 nM
[3]
  IC50: < 50 nM
[4]; [7]
  IC50: 100 to 1000 nM
[5]; [8]
  IC50: < 100 nM
[5]; [9]
  MTAP intact/deleted ratio: A (an IC50 ratio greater than or equal to 10 fold)
[6]; [10]
  IC50: < 1000 nM

## CCc1cc(NC(=O)C(=O)N2C[C@@H](C)CC[C@@H]2c2ccc(N3CCC(CN(C)CC)CC3)cc2)cnc1N [Compound 1232, N-(6-Amino-5-ethylpyridin-3-yl)-2-[(2R,5S)-2-[4-(4-{[ethyl(methyl)amino]methyl}piperidin-1-yl)phenyl]-5-methylpiperidin-1-yl]-2-oxoacetamide]
[1]
  IC50: 50 to 500 nM
[2]; read-out: No Cofactor/rel IC50
  IC50: < 50 nM
[3]
  IC50: < 50 nM
[4]; [7]
  IC50: 100 to 1000 nM
[5]; [8]
  IC50: < 100 nM
[5]; [9]
  MTAP intact/deleted ratio: A (an IC50 ratio greater than or equal to 10 fold)
[6]; [10]
  IC50: < 1000 nM

## COc1ncc(NC(=O)C(=O)N2C[C@@H](C)CC[C@@H]2c2ccc3sc(C4CC5(C4)CN(C)C5)nc3c2)cc1C(N)=O [Compound 1236, 2-methoxy-5-(2-((2R,5S)-5-methyl-2-(2-(2-methyl-2-azaspiro[3.3]heptan-6-yl)benzo[d]thiazol-5-yl)piperidin-1-yl)-2-oxoacetamido)nicotinamide]
[1]
  IC50: < 50 nM
[2]; read-out: No Cofactor/rel IC50
  IC50: < 50 nM
[3]
  IC50: < 50 nM
[4]; [7]
  IC50: < 100 nM
[5]; [8]
  IC50: < 100 nM
[5]; [9]
  MTAP intact/deleted ratio: A (an IC50 ratio greater than or equal to 10 fold)
[6]; [10]
  IC50: < 1000 nM

## CCc1cc(NC(=O)C(=O)N2C[C@@H](C)CC[C@@H]2c2ccc3sc(C(C)(C)N(C)C)nc3c2)cnc1N [Compound 1237, N-(6-amino-5-ethylpyridin-3-yl)-2-((2R,5S)-2-(2-(2-(dimethylamino)propan-2-yl)benzo[d]thiazol-5-yl)-5-methylpiperidin-1-yl)-2-oxoacetamide]
[1]
  IC50: 50 to 500 nM
[2]; read-out: No Cofactor/rel IC50
  IC50: < 50 nM
[3]
  IC50: < 50 nM
[4]; [7]
  IC50: < 100 nM
[5]; [8]
  IC50: < 100 nM
[5]; [9]
  MTAP intact/deleted ratio: A (an IC50 ratio greater than or equal to 10 fold)
[6]; [10]
  IC50: < 1000 nM

## CCc1cc(NC(=O)C(=O)N2C[C@@H](C)CC[C@@H]2c2ccc3sc(-c4ccccn4)nc3c2)cnc1N [Compound 1238, N-(6-amino-5-ethylpyridin-3-yl)-2-((2R,5S)-5-methyl-2-(2-(pyridin-2-yl)benzo[d]thiazol-5-yl)piperidin-1-yl)-2-oxoacetamide]
[1]
  IC50: 50 to 500 nM
[2]; read-out: No Cofactor/rel IC50
  IC50: 50 to 500 nM
[3]
  IC50: < 50 nM
[4]; [7]
  IC50: 100 to 1000 nM
[5]; [8]
  IC50: < 100 nM
[5]; [9]
  MTAP intact/deleted ratio: A (an IC50 ratio greater than or equal to 10 fold)
[6]; [10]
  IC50: < 1000 nM

## CCc1cc(NC(=O)C(=O)N2C[C@@H](C)CC[C@@H]2c2ccc3sc(C4CCNCC4)nc3c2)cnc1N [Compound 1240, N-(6-amino-5-ethyl-3-pyridyl)-2-[(2R,5S)-5-methyl-2-[2-(4-piperidyl)-1,3-benzothiazol-5-yl]-1-piperidyl]-2-oxo-acetamide]
[1]
  IC50: < 50 nM
[2]; [11]
  IC50: < 50 nM
[3]
  IC50: < 50 nM
[4]; [7]
  IC50: < 100 nM
[5]; [12]
  IC50: < 100 nM
[5]; [13]
  MTAP intact/deleted ratio: B (an IC50 ratio greater than or equal to 3 fold but lower than 10 fold)
[6]; [14]
  IC50: < 1000 nM

## CCc1cc(NC(=O)C(=O)N2C[C@@H](C)CC[C@@H]2c2ccc3sc(C4CCOC4)nc3c2)cnc1N (stereo partly drawn) [Compound 1242, N-(6-amino-5-ethylpyridin-3-yl)-2-((2R,5S)-5-methyl-2-(2-(tetrahydrofuran-3-yl)benzo[d]thiazol-5-yl)piperidin-1-yl)-2-oxoacetamide]
[1]
  IC50: 50 to 500 nM
[2]; [11]
  IC50: < 50 nM
[3]
  IC50: < 50 nM
[4]; [7]
  IC50: 100 to 1000 nM
[5]; [12]
  IC50: < 100 nM
[5]; [13]
  MTAP intact/deleted ratio: A (an IC50 ratio greater than or equal to 10 fold)
[6]; [14]
  IC50: < 1000 nM

## CCc1cc(NC(=O)C(=O)N2C[C@@H](C)CC[C@@H]2c2ccc3sc(N4CCN(C)CC4)nc3c2)cnc1N [Compound 1244, N-(6-amino-5-ethylpyridin-3-yl)-2-((2R,5S)-5-methyl-2-(2-(4-methylpiperazin-1-yl)benzo[d]thiazol-5-yl)piperidin-1-yl)-2-oxoacetamide]
[1]
  IC50: 50 to 500 nM
[2]; [11]
  IC50: < 50 nM
[3]
  IC50: < 50 nM
[4]; [7]
  IC50: < 100 nM
[5]; [12]
  IC50: < 100 nM
[5]; [13]
  MTAP intact/deleted ratio: A (an IC50 ratio greater than or equal to 10 fold)
[6]; [14]
  IC50: < 1000 nM

## CCc1cc(NC(=O)C(=O)N2C[C@@H](C)CC[C@@H]2c2ccc3sc([C@H]4COCCN4C)nc3c2)cnc1N [Compound 1245, N-(6-amino-5-ethylpyridin-3-yl)-2-((2R,5S)-5-methyl-2-(2-(4-methylmorpholin-3-yl)benzo[d]thiazol-5-yl)piperidin-1-yl)-2-oxoacetamide]
[1]
  IC50: 50 to 500 nM
[2]; [11]
  IC50: < 50 nM
[3]
  IC50: < 50 nM
[4]; [7]
  IC50: 100 to 1000 nM
[5]; [12]
  IC50: < 100 nM
[5]; [13]
  MTAP intact/deleted ratio: A (an IC50 ratio greater than or equal to 10 fold)
[6]; [14]
  IC50: < 1000 nM
